# Experimental data published in patent EP4603504A1, “NOVEL CATHEPSIN K AND L INHIBITORS” (ECOLE POLYTECHNIQUE FEDERALE DE LAUSANNE (EPFL), priority 2024, dated 2025).
# Peptide text beside a SMILES is read from it.
# Experiments:
# [1] = test system: panel of 7 different cysteine cathepsin proteases; experiment: FRET assays on a panel of cathepsins (selectivity); format: biochemical; conditions: profiled against five additional cathepsins (Fig. 1)
# From the text: The figures show. • Figure 1. […] A schematic representation of the structure of the NNPI is given to the left.
# CTSL [2] = target: T1, CTSL (Homo sapiens, UniProt P07711); experiment: FRET assay on cathepsin L (CTSL); format: biochemical; conditions: substrate Z-Leu-Arg-AMC, inhibitor preincubated 30 minutes, n=3
# T1 construct: purchased R&D systems 952-CY-010
# Description: (§1) In brief, CTSK or CTSL was diluted to 20 µg/ml or 40 µg/ml respectively, in Assay Buffer (50 mM MES, 5 mM DTT, 1 mM EDTA, 0.005% (w/v) Brij-35, pH 6.0), and incubated on ice for 15 minutes. After activation, CTSK or CTSL was diluted to 0.02 µg/ml in Assay Buffer. The substrate peptide Z-Leu-Arg-AMC (R&D systems, cat #ES008) was then diluted to 20 µM in Assay buffer (40 µM for CTSL).
# (§2) Next, 50 µl of the enzyme solution was loaded in a 96-well plate, inhibitors to be tested were added to the enzyme and incubated for 30 minutes, and then the reaction was started by adding 50 µl of the fluorogenic substrate. A substrate blank containing 50 µl of Assay Buffer and 50 µl of substrate without any cathepsin was included. Fluorescent emission was measured with SpectraMax iD3 (Molecular Devices) in kinetic mode for 60 minutes (excitation: 380 nm, emission: 460 nm).
# CTSL [3] = target: T1, CTSL; experiment: FRET assay cathepsin L; format: biochemical; conditions: result in words, compared with other NNPIs (Fig 2h-j)
# Description: as §1, §2
# A library of 32 NNPIs was screened by FRET assay on CTSK and CTSL by using 384-well plates. For each of the amino acid positions from 2 to 7 in the original NNPI-E15 structure, 6 different amino acid substitutions were tested (A, L, T, W, E or R). The final concentrations of enzyme and substrate were the same as the ones described above for the respective FRET assays. The final reaction volume per well was 20 µl. The inhibitor concentration was 30 nM. Fluorescent emission was measured with a BioTek Neo HTS plate reader.
# [4] = Solubility (remark in text, no method); format: physicochemical
# T1 sequence (P07711 114-333): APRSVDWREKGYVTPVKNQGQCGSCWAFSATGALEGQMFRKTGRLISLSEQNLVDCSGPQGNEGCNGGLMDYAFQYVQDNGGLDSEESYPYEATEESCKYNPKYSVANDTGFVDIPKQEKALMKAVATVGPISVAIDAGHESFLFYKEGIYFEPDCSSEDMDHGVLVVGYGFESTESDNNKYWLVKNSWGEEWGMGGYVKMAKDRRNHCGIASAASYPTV
molecule,measurement,setting,value
"CC[C@H](C)[C@H](NC(=O)[C@@H](NC(=O)/C=C/CNC(=O)[C@H](CC(C)C)NC(=O)[C@H](CCCNC(=N)N)NC(=O)[C@H](CCCNC(=N)N)NC(=O)[C@@H](N)CCCCN)C(C)C)C(=O)N[C@@H](CCCNC(=N)N)C(N)=O [NNPI-F17, KRRL(Y)VIR] (HELM PEPTIDE1{K.R.R.L.[O=C(/C=C/CN[*:1])[*:2]].V.I.R.[am]}$$$$V2.0; N-terminus and C-terminus assumed)",selectivity,[1],good selectivity
"CC(C)C[C@H](NC(=O)[C@H](CCCNC(=N)N)NC(=O)[C@@H](N)CCCCN)C(=O)N[C@@H](Cc1c[nH]c2ccccc12)C(=O)NC/C=C/C(=O)N[C@H](C(=O)N[C@@H](CC(C)C)C(=O)N[C@@H](Cc1c[nH]c2ccccc12)C(N)=O)C(C)C [NNPI-G14, KRLW(Y)VLW] (HELM PEPTIDE1{K.R.L.W.[O=C(/C=C/CN[*:1])[*:2]].V.L.W.[am]}$$$$V2.0)",selectivity,[1],good selectivity
same,IC50,CTSL [2],1.7 nM
KRLW(Y)VMW [NNPI-G12] [listing 1 of 2 here],inhibitory potency on CTSL,CTSL [3],most potent inhibitor
KRLW(Y)VMW [NNPI-G12] [listing 2 of 2 here],solubility,[4],poor
